Assay results published in patent US20250064789A1, “KETOAMIDE DERIVATIVES AND PHARMACEUTICAL USES THEREOF” (priority 2022, published 2025).
Read-outs that look alike come from different tables or passages of the source.

Target: recombinant SARS-CoV-2 M^pro (Severe acute respiratory syndrome coronavirus 2 (2019-nCoV) (SARS-CoV-2), UniProt P0DTD1)
Assay: Inhibition of SARS-CoV-2 M^pro enzyme activity (fluorescent substrate assay)
Assay type: biochemical
Conditions: inhibition of SARS-CoV-2 M^pro enzyme activity, read-out: IC50

## O=C(Cn1cc(-c2ccc(OC(F)(F)F)cc2)cn1)N[C@H](Cc1ccccc1)C(=O)C(=O)NCc1nccs1 [Compound 495]
Values given in μM
  IC50: 2.27 ± 0.09 µM

## O=C(CC1CC1(F)F)NCC(=O)N[C@H](Cc1ccccc1)C(=O)C(=O)NCc1nccs1 (some centres unmarked) [Compound 386]
Values in nM
  IC50: 0.166 ± 0.0021 µM

## O=C(NCc1ccccn1)C(=O)[C@@H](Cc1ccccc1)NC(=O)C1c2ccccc2CN1C(=O)C1CCC(F)(F)CC1 (some centres unmarked) [Compound 266]
Values in nM
  IC50: 0.0344 ± 0.0023 µM

## COc1ccc(CCCC(=O)N[C@H](C)C(=O)N[C@H](Cc2ccccc2)C(=O)C(=O)NCc2ccccn2)cc1 [Compound 63]
Values in nM
  IC50: 0.0196 ± 0.0003 µM

## C[C@@H](NC(=O)C1CCC(F)(F)C1)C(=O)N[C@H](Cc1ccccc1)C(=O)C(=O)NCc1ccccn1 (some centres unmarked) [Compound 121]
Values in nM
  IC50: 0.0507 ± 0.0004 µM

## COc1ccc(CC(=O)N[C@H](C)C(=O)N[C@H](Cc2ccccc2)C(=O)C(=O)NCc2ccccn2)cc1 [Compound 77]
Values in nM
  IC50: 0.0241 µM

## O=C(Cn1cc(-c2ccc(F)nc2)cn1)N[C@H](Cc1ccccc1)C(=O)C(=O)NCc1nccs1 [Compound 493]
Values in nM
  IC50: 0.4515 ± 0.0023 µM

## O=C(Cn1cc(C2CCC(F)(F)CC2)c(C(F)(F)F)n1)N[C@H](Cc1ccccc1)C(=O)C(=O)NCc1nccs1 [Compound 510]
Values in nM
  IC50: 0.137 ± 0.0016 µM

## O=C(CCC1CCC(F)(F)CC1)NC1(C(=O)N[C@H](Cc2ccccc2)C(=O)C(=O)NCc2ccccn2)CC1 [Compound 157]
Values in nM
  IC50: 0.0125 ± 0.0005 µM

## C[C@@H](NC(=O)[C@H]1CC(=O)N([C@@H](C)c2ccccc2)C1)C(=O)N[C@H](Cc1ccccc1)C(=O)C(=O)NCc1ccccn1 [Compound 122]
Values in nM
  IC50: 0.2809 ± 0.0023 µM

## C[C@@H](NS(=O)(=O)c1cccnc1)C(=O)N[C@H](Cc1ccccc1)C(=O)C(=O)NCc1ccccn1 [Compound 332]
Values in nM
  IC50: 0.8883 ± 0.0012 µM

## COC[C@@H](NC(=O)C1CCCC(F)(F)C1)C(=O)N[C@H](Cc1cccc(Cl)c1)C(=O)C(=O)NCc1nccs1 (some centres unmarked) [Compound 566]
Values in nM
  IC50: 0.0332 ± 0.0023 µM

## O=C(Cc1csc(C2CCC(F)(F)CC2)n1)N[C@H](Cc1ccccc1)C(=O)C(=O)NCc1nccs1 [Compound 511, (R)-3-(2-(2-(4,4-difluorocyclohexyl)thiazole-4-yl)acetamido)-2-oxo-4-phenyl-N-(thiazole-2-ylmethyl)butyramide]
Values in nM
  IC50: 0.0304 ± 0.0021 µM

## O=C(NCc1ccccn1)C(=O)[C@@H](Cc1ccccc1)NC(=O)[C@@H]1[C@H]2CCC[C@H]2CN1C(=O)c1cnccn1 [Compound 260]
Values in nM
  IC50: 0.742 ± 0.0063 µM

## O=C(NCc1ccccn1)C(=O)[C@@H](Cc1ccccc1)NC(=O)[C@H]1CC(F)(F)CN1C(=O)CC1CCC(F)(F)CC1 [Compound 276]
Values in nM
  IC50: 0.013 ± 0.0008 µM

## C[C@@H](NC(=O)C1CCCC(F)(F)C1)C(=O)N[C@H](Cc1ccccc1)C(=O)C(=O)NCc1cscn1 (some centres unmarked) [Compound 416]
Values in nM
  IC50: 0.019 ± 0.0004 µM

## O=C(NCc1ccccn1)C(=O)[C@@H](Cc1ccccc1)NC(=O)C1[C@H]2CCC[C@H]2CN1C(=O)c1cc2cc(Cl)ccc2o1 (some centres unmarked) [Compound 256]
Values in nM
  IC50: 0.0205 ± 0.0017 µM

## C[C@@H](NC(=O)COc1ccccc1)C(=O)N[C@H](Cc1ccccc1)C(=O)C(=O)NCc1ccccn1 [Compound 61]
Values in nM
  IC50: 0.0118 ± 0.0001 µM

## Cc1cnc(CNC(=O)C(=O)[C@@H](Cc2ccccc2)NC(=O)[C@@H](C)NC(=O)C2CCC(F)(F)CC2)s1 [Compound 356]
Values in nM
  IC50: 0.0431 ± 0.0001 µM

## O=C(CN1C(=O)CN(c2ccc(F)cc2)C1=O)N[C@H](Cc1ccccc1)C(=O)C(=O)NCc1nccs1 [Compound 525]
Values in nM
  IC50: 0.0845 ± 0.0018 µM

## O=C(CNC(=O)C1CC2CCC1C2)N[C@H](Cc1ccccc1)C(=O)C(=O)NCc1cscn1 (some centres unmarked) [Compound 427]
Values in nM
  IC50: 0.0209 ± 0.0004 µM

## Cc1cccc(CNC(=O)C(=O)[C@@H](Cc2ccccc2)NC(=O)[C@@H](C)OCc2ccccc2)n1 [Compound 28]
Values given in μM
  IC50: > 5 µM

## CN1CCC(C(=O)NC2(C(=O)N[C@H](Cc3ccccc3)C(=O)C(=O)NCc3ccccn3)CCC2)CC1=O (some centres unmarked) [Compound 189]
Values given in μM
  IC50: > 2.5 µM

## C[C@@H](NC(=O)CC1CCS(=O)(=O)CC1)C(=O)N[C@H](Cc1ccccc1)C(=O)C(=O)NCc1ccccn1 [Compound 131]
Values in nM
  IC50: 0.0368 ± 0.0001 µM

## C[C@@H](NC(=O)COC1CCCCC1)C(=O)N[C@H](Cc1ccccc1)C(=O)C(=O)NCc1ccccn1 [Compound 114]
Values in nM
  IC50: 0.0349 ± 0.001 µM

## C[C@@H](OCc1cccc(F)c1)C(=O)N[C@H](Cc1ccccc1)C(=O)C(=O)NCc1ccccn1 [Compound 7]
Values in nM
  IC50: 0.0285 ± 0.0009 µM

## CC(C)(NC(=O)[C@H]1CC[C@@H](F)CC1)C(=O)N[C@H](Cc1ccccc1)C(=O)C(=O)NCc1ccccn1 [Compound 175]
Values in nM
  IC50: 0.0473 ± 0.0028 µM

## C[C@@H](NC(=O)CC1CCC(F)(F)CC1)C(=O)N[C@H](Cc1ccccc1)C(=O)C(=O)NCc1ccccn1 [Compound 125]
Values in nM
  IC50: 0.0197 ± 0.0012 µM

## O=C(NCc1ccccn1)C(=O)[C@@H](Cc1ccccc1)NC(=O)[C@H]1CCCCN1C(=O)C1CCC(F)(F)CC1 [Compound 282]
Values in nM
  IC50: 0.0134 ± 0.0004 µM

## O=C(CC1CCC(F)(F)CC1)NC1(C(=O)N[C@H](Cc2ccccc2)C(=O)C(=O)NCc2ccccn2)Cc2ccccc2C1 [Compound 244]
Values in nM
  IC50: 0.0151 ± 0.0001 µM

## O=C(NCc1nccs1)C(=O)[C@@H](Cc1ccccc1)NC(=O)c1cccc(F)c1 [Compound 472]
Values in nM
  IC50: 0.478 ± 0.0048 µM

## O=C(NCc1ncon1)C(=O)[C@@H](Cc1ccccc1)NC(=O)c1ccccc1 [Compound 460]
Values given in μM
  IC50: 53.1 ± 3.34 µM

## COc1ccc(CNC(=O)C(=O)[C@@H](Cc2ccccc2)NC(=O)[C@@H](C)NC(=O)C2CCC(F)(F)CC2)nc1 [Compound 345]
Values in nM
  IC50: 0.0609 ± 0.0047 µM

## O=C(NCc1ccccn1)C(=O)[C@@H](Cc1ccccc1)NC(=O)C1(NC(=O)c2cnccn2)CC1 [Compound 158]
Values in nM
  IC50: 0.252 ± 0.009 µM

## O=C(NCc1ccccn1)C(=O)[C@@H](Cc1ccccc1)NC(=O)[C@H](NC(=O)c1ccc(F)cc1)C1CC1 [Compound 250]
Values in nM
  IC50: 0.0424 ± 0.0024 µM

## C[C@@H](NC(=O)c1cc(Cl)cc(OC(F)(F)F)c1)C(=O)N[C@H](Cc1ccccc1)C(=O)C(=O)NCc1nccs1 [Compound 383]
Values in nM
  IC50: 0.0215 ± 0.0008 µM

## NC(=O)C[C@@H](NC(=O)c1ccc(F)cc1)C(=O)N[C@H](Cc1ccccc1)C(=O)C(=O)NCc1ccccn1 [Compound 254]
Values in nM
  IC50: 0.0455 ± 0.0031 µM

## O=C(NCc1ccccn1)C(=O)[C@@H](Cc1ccccc1)NC(=O)C1(NC(=O)c2ccc(F)cc2)CCCC1 [Compound 248]
Values in nM
  IC50: 0.0246 ± 0.0006 µM

## CC1(C)C(C(=O)NC2CC(F)(F)C2)C1C(=O)N[C@H](Cc1ccccc1)C(=O)C(=O)NCc1nccs1 (some centres unmarked) [Compound 556]
Values in nM
  IC50: 0.2035 ± 0.0006 µM

## C[C@@H](NC(=O)CC1CCC(F)(F)CC1)C(=O)N[C@H](Cc1ccccc1)C(=O)C(=O)NCc1ccccn1 [Compound 111]
Values in nM
  IC50: 0.0253 ± 0.0002 µM

## O=C(CCc1ccccc1)N[C@H](Cc1ccccc1)C(=O)C(=O)NCc1nccs1 [Compound 475]
Values given in μM
  IC50: 1.22 ± 0.1 µM

## COc1ccc(OC(C)C(=O)N[C@H](Cc2ccccc2)C(=O)C(=O)NCc2ccccn2)cc1 (some centres unmarked) [Compound 57]
Values in nM
  IC50: 0.351 ± 0.0068 µM

## O=C(NCc1ccccn1)C(=O)[C@@H](Cc1ccccc1)NC(=O)C1(C(=O)NCc2cnccn2)CC1 [Compound 321]
Values in nM
  IC50: 0.166 ± 0.0026 µM

## CC(C)[C@@H](NC(=O)c1ccc(F)cc1)C(=O)N[C@H](Cc1ccccc1)C(=O)C(=O)NCc1ccccn1 [Compound 247]
Values in nM
  IC50: 0.0382 ± 0.0028 µM

## O=C(NCc1ccccn1)C(=O)[C@@H](Cc1ccccc1)NC(=O)[C@@H]1[C@H]2CCC[C@H]2CN1C(=O)CC1CCC(F)(F)CC1 [Compound 259]
Values in nM
  IC50: 0.0214 ± 0.0035 µM

## CC(C)(NC(=O)C1CC12CCC(F)(F)CC2)C(=O)N[C@H](Cc1ccccc1)C(=O)C(=O)NCc1ccccn1 (some centres unmarked) [Compound 176]
Values in nM
  IC50: 0.0159 µM

## CC(C)(C)[C@H](NC(=O)C(F)(F)F)C(=O)N[C@H](Cc1ccccc1)C(=O)C(=O)NCc1ccccn1 [Compound 245]
Values given in μM
  IC50: > 5 µM

## O=C(NCc1nccs1)C(=O)[C@@H](Cc1ccccc1)NC(=O)[C@H]1CC(F)(F)CN1C(=O)C1CCC(F)(F)C1 (some centres unmarked) [Compound 404]
Values in nM
  IC50: 0.0477 ± 0.001 µM

## CC(C)(C)OC(=O)N1CC(NC(=O)C2CCC(F)(F)CC2)(C(=O)N[C@H](Cc2ccccc2)C(=O)C(=O)NCc2ccccn2)C1 [Compound 225]
Values in nM
  IC50: 0.0382 ± 0.003 µM

## COc1ccc(OC(C)C(=O)N[C@H](C)C(=O)N[C@H](Cc2ccccc2)C(=O)C(=O)NCc2ccccn2)cc1 (some centres unmarked) [Compound 87]
Values in nM
  IC50: 0.0421 ± 0.001 µM

## O=C(NCc1cccs1)C(=O)[C@@H](Cc1ccccc1)NC(=O)c1ccccc1 [Compound 455]
Values given in μM
  IC50: 77.3 ± 2.31 µM

## O=C(NCc1ccccn1)C(=O)[C@@H](Cc1ccccc1)NC(=O)C1(NC(=O)[C@@H]2C[C@@H]3[C@H](C2)C3(F)F)CCC1 [Compound 202]
Values in nM
  IC50: 0.0174 ± 0.0012 µM

## C[C@@H](NC(=O)C1CCCCCC1)C(=O)N[C@H](Cc1ccccc1)C(=O)C(=O)NCc1nccs1 [Compound 370]
Values in nM
  IC50: 0.0148 ± 0.0007 µM

## O=C(NCc1nccs1)C(=O)[C@@H](Cc1ccccc1)NC(=O)[C@H]1COCCN1C(=O)CC1CCC(F)(F)CC1 [Compound 411]
Values in nM
  IC50: 0.0155 ± 0.0001 µM

## O=C(NCc1nccs1)C(=O)[C@@H](Cc1ccccc1)NC(=O)c1ccc(F)cc1 [Compound 473]
Values given in μM
  IC50: 1.31 ± 0.1 µM

## C[C@@H](NC(=O)CC1CC(F)(F)C1)C(=O)N[C@H](Cc1ccco1)C(=O)C(=O)NCc1ccccn1 [Compound 364]
Values in nM
  IC50: 0.0751 ± 0.0001 µM

## O=C(NCc1nccs1)C(=O)[C@@H](Cc1cccc(F)c1)NC(=O)c1ccccc1 [Compound 465]
Values given in μM
  IC50: 2.55 ± 0.02 µM

## O=C(NCc1ccccn1)C(=O)[C@@H](Cc1ccccc1)NC(=O)C1CCN(Cc2ccccc2)C1 (some centres unmarked) [Compound 279]
Values in nM
  IC50: 0.272 ± 0.0062 µM

## C[C@@H](NC(=O)c1cc(OC(F)(F)F)ccc1F)C(=O)N[C@H](Cc1ccccc1)C(=O)C(=O)NCc1nccs1 [Compound 385]
Values in nM
  IC50: 0.0558 ± 0.0072 µM

## CCC[C@@H](NC(=O)[C@@H](C)NC(=O)C1CCC(F)(F)CC1)C(=O)C(=O)NCc1ccccn1 [Compound 358]
Values in nM
  IC50: 0.0932 ± 0.0011 µM

## C[C@@H](NC(=O)C1CCC(F)(F)CC1)C(=O)N[C@H](Cc1ccccc1)C(=O)C(=O)NCc1cocn1 [Compound 350]
Values in nM
  IC50: 0.042 ± 0.0037 µM

## C[C@@H](OCc1ccccc1)C(=O)N[C@H](Cc1ccccc1)C(=O)C(=O)NCc1ncccn1 [Compound 29]
Values given in μM
  IC50: > 5 µM

## CC(C)(NC(=O)[C@@H](NC(=O)c1cnccn1)C1CCCCC1)C(=O)N[C@H](Cc1ccccc1)C(=O)C(=O)NCc1ccccn1 [Compound 178]
Values in nM
  IC50: 0.0175 ± 0.0005 µM

## CC(C)[C@@H](OCc1ccc(F)cc1)C(=O)N[C@H](Cc1ccccc1)C(=O)C(=O)NCc1ccccn1 [Compound 26]
Values in nM
  IC50: 0.0139 ± 0.0002 µM

## C[C@@H](NC(=O)c1cnn(-c2ccccc2)c1)C(=O)N[C@H](Cc1ccccc1)C(=O)C(=O)NCc1ccccn1 [Compound 132]
Values in nM
  IC50: 0.158 ± 0.0262 µM
